Assay results from patent US7858637B2, “Administration of TLR7 ligands and prodrugs thereof for treatment of infection by hepatitis C virus” (priority 2003, dated 2010).
Where “and” joins values, the source holds several entries; their conditions need not be identical. Equal entries are not always repeated. Entries after “also recorded” stand apart in the source; their conditions may differ.

Tests used:
HCV = HCV viral load reduction in patients, intravenous isatoribine; format: in vivo, human; conditions: 800 mg QD×7 days IV infusion
Method: All doses were administered by constant rate infusion over a 60-minute period, except the 800 mg dose was administered over an 80-minute period. The flow rate for each dose was as follows: 3.33 mL/min for the 200 mg dose; 6.67 mL/min for the 400 mg dose; 8.33 mL/min for the 500 mg dose; or 10.0 mL/min for the 600 mg and 800 mg dose. Four to twelve patients were enrolled in each of the dose groups (200 mg, 400 mg, 600 mg and 800 mg per dose) and received once daily intravenous infusions for 7 days. Prior to dosing, a blood sample was drawn from each patient for assessment of the genotype of the HCV virus. […] The viral load was measured by the branched DNA method ([…]3.0 bDNA assay, Bayer Diagnostics). For plasma HCV RNA, the maximum change from the pre-treatment baseline was estimated using log-transformed values.

interferon alpha = test: Interferon alpha plasma concentrations in mice; format: in vivo, mouse; conditions: for Mu-IFN-α plasma concentration, individual value / Mu-IFN-α plasma concentration, mean: mice
Description: Not only can one measure the plasma concentrations of isatoribine arising from oral administration of the said prodrug(s) but also the extensive immunological research conducted in the mouse has provided reagents suitable for measuring the levels of interferon alpha, a cytokine of interest reflecting one of the desired biologic activities of isatoribine.

[1] = Toxicology studies, GI tolerance in beagle dogs; format: in vivo, beagle dog; conditions: dog, in vivo, iv
Description: We compared in the dog the oral toxicology of 21 and 24, and the intravenous toxicology of 21. We observed that the oral toxicology of 24 was much more like intravenous 21 than it was like oral 21.

[2] = Pharmacokinetics of isatoribine in beagle dogs after oral dosing; conditions: both, dog, in vivo, 50 mg/kg
Method: The effect of a prodrug (val-isatoribine, 24) on the systemic exposure to isatoribine (21) after oral administration to beagle dogs was investigated. Isatoribine was prepared in sodium bicarbonate solution. Val-isatoribine and isatoribine were prepared as the following formulations, which were chosen to ensure solubility: Formulation 1: […] Formulation 2: […] Four male and four female adult beagle dogs weighing between 15 to 27 kg and approximately 1-2 years old were used at the beginning of the study. The animals were divided into 2 groups of 2 males and 2 females each. The test material was administered by gavage on Days 1 and 8, allowing a 7 day washout period between administrations. […] The plasma was frozen at −70° C. until analysis. The plasma was analyzed for isatoribine by an HPLC-MS/MS assay.

[3] = one vehicle dose, one oral 50 mg/kg dose 4 hours later, time 4.03 h (second dose)
[4] = one vehicle dose, one oral 50 mg/kg dose 4 hours later, time 4.08 h (second dose)
[5] = one vehicle dose, one oral 50 mg/kg dose 4 hours later, time 4.25 h (second dose)
[6] = one vehicle dose, one oral 50 mg/kg dose 4 hours later, time 8.00 h (second dose)
[7] = two oral 50 mg/kg doses 4 hours apart, time 0.08 h (first dose)
[8] = two oral 50 mg/kg doses 4 hours apart, time 0.50 h (first dose)
[9] = two oral 50 mg/kg doses 4 hours apart, time 1.00 h (first dose)
[10] = two oral 50 mg/kg doses 4 hours apart, time 3.00 h (first dose)
[11] = two oral 50 mg/kg doses 4 hours apart, time 4.00 h (first dose)
[12] = two oral 50 mg/kg doses 4 hours apart, time 4.03 h (second dose)
[13] = two oral 50 mg/kg doses 4 hours apart, time 4.08 h (second dose)
[14] = two oral 50 mg/kg doses 4 hours apart, time 4.25 h (second dose)
[15] = two oral 50 mg/kg doses 4 hours apart, time 5.00 h (second dose)
[16] = two oral 50 mg/kg doses 4 hours apart, time 5.50 h (second dose)
[17] = two oral 50 mg/kg doses 4 hours apart, time 7.00 h (second dose)
[18] = oral dosing, data of Tables 15, 16 and 17

With `Nc1nc2c(sc(=O)n2[C@@H]2O[C@H](CO)[C@@H](O)[C@H]2O)c(=O)[nH]1` [Compound 21, 7-thia-8-oxoguanosine] the “patients with plasma viral load decrease of more than 0.5 log 10 units” value (HCV) was “Eight of 12”, the “mean change in plasma viral load (HCV RNA) from baseline” value (HCV; 12 patients) was −0.76 log 10 units and the “range of change in plasma viral load (HCV RNA) from baseline” value (HCV; 12 patients) was −2.85 to +0.21 log 10 units. For the same molecule, the “Mu-IFN-α plasma concentration, individual value” (interferon alpha; [3]) was “BQL^25 pg/mL”, the “Mu-IFN-α plasma concentration, mean” value (interferon alpha; [3]) was 0.00 pg/mL and the “Mu-IFN-α plasma concentration, individual value” (interferon alpha; [4]) was “BQL^25 pg/mL”. The “Mu-IFN-α plasma concentration, mean” value (interferon alpha; [4]) was 0.00 pg/mL, the “Mu-IFN-α plasma concentration, individual value” (interferon alpha; [5]) was “BQL^25 pg/mL” and the “Mu-IFN-α plasma concentration, mean” value (interferon alpha; [5]) was 0.00 pg/mL. The “Mu-IFN-α plasma concentration, mean” value (interferon alpha; one vehicle dose, one oral 50 mg/kg dose 4 hours later, time 4.50 h (second dose)) was 44.4 pg/mL, the “Mu-IFN-α plasma concentration, individual value” (interferon alpha; one vehicle dose, one oral 50 mg/kg dose 4 hours later, time 4.50 h (second dose), listed as Isatoribine, 50 mg/kg) was “BQL^100 pg/mL and BQL^25 pg/mL and 133.2 pg/mL” and the “Mu-IFN-α plasma concentration, mean” value (interferon alpha; one vehicle dose, one oral 50 mg/kg dose 4 hours later, time 5.00 h (second dose)) was 37.5 pg/mL. For the same molecule, the “Mu-IFN-α plasma concentration, individual value” (interferon alpha; one vehicle dose, one oral 50 mg/kg dose 4 hours later, time 5.00 h (second dose), listed as Isatoribine, 50 mg/kg) was 74.9 pg/mL and BQL^50 pg/mL, the “Mu-IFN-α plasma concentration, mean” value (interferon alpha; one vehicle dose, one oral 50 mg/kg dose 4 hours later, time 5.50 h (second dose)) was 0.00 pg/mL and the “Mu-IFN-α plasma concentration, individual value” (interferon alpha; one vehicle dose, one oral 50 mg/kg dose 4 hours later, time 5.50 h (second dose), listed as Isatoribine, 50 mg/kg) was “BQL^250 pg/mL; also recorded: BQL^75 pg/mL; also recorded: BQL^25 pg/mL”. For the same molecule, the “Mu-IFN-α plasma concentration, mean” value (interferon alpha; one vehicle dose, one oral 50 mg/kg dose 4 hours later, time 6.00 h (second dose)) was 0.00 pg/mL, the “Mu-IFN-α plasma concentration, individual value” (interferon alpha; one vehicle dose, one oral 50 mg/kg dose 4 hours later, time 6.00 h (second dose), listed as Isatoribine, 50 mg/kg) was “BQL^25 pg/mL; also recorded: BQL^75 pg/mL” and the “Mu-IFN-α plasma concentration, mean” value (interferon alpha; one vehicle dose, one oral 50 mg/kg dose 4 hours later, time 7.00 h (second dose)) was 0.00 pg/mL. The “Mu-IFN-α plasma concentration, individual value” (interferon alpha; one vehicle dose, one oral 50 mg/kg dose 4 hours later, time 7.00 h (second dose), listed as Isatoribine, 50 mg/kg) was “BQL^50 pg/mL; also recorded: BQL^25 pg/mL”, the “Mu-IFN-α plasma concentration, individual value” (interferon alpha; [6]) was “BQL^25 pg/mL” and the “Mu-IFN-α plasma concentration, mean” value (interferon alpha; [6]) was 0.00 pg/mL. For the same molecule, the “Mu-IFN-α plasma concentration, mean” value (interferon alpha; two oral 50 mg/kg doses 4 hours apart, time 0.00 h (first dose)) was 0.00 pg/mL, the “Mu-IFN-α plasma concentration, individual value” (interferon alpha; two oral 50 mg/kg doses 4 hours apart, time 0.00 h (first dose), listed as Isatoribine, 50 mg/kg) was “BQL^50 pg/mL; also recorded: BQL^125 pg/mL” and the “Mu-IFN-α plasma concentration, mean” value (interferon alpha; two oral 50 mg/kg doses 4 hours apart, time 0.03 h (first dose)) was 0.00 pg/mL. For the same molecule, the “Mu-IFN-α plasma concentration, individual value” (interferon alpha; two oral 50 mg/kg doses 4 hours apart, time 0.03 h (first dose), listed as Isatoribine, 50 mg/kg) was “BQL^25 pg/mL; also recorded: BQL^250 pg/mL”, the “Mu-IFN-α plasma concentration, individual value” (interferon alpha; [7]) was “BQL^25 pg/mL” and the “Mu-IFN-α plasma concentration, mean” value (interferon alpha; [7]) was 0.00 pg/mL. For the same molecule, the “Mu-IFN-α plasma concentration, mean” value (interferon alpha; two oral 50 mg/kg doses 4 hours apart, time 0.25 h (first dose)) was 0.00 pg/mL, the “Mu-IFN-α plasma concentration, individual value” (interferon alpha; two oral 50 mg/kg doses 4 hours apart, time 0.25 h (first dose), listed as Isatoribine, 50 mg/kg) was “BQL^50 pg/mL; also recorded: BQL^25 pg/mL” and the “Mu-IFN-α plasma concentration, individual value” (interferon alpha; [8]) was “BQL^25 pg/mL”. For the same molecule, the “Mu-IFN-α plasma concentration, mean” value (interferon alpha; [8]) was 0.00 pg/mL, the “Mu-IFN-α plasma concentration, individual value” (interferon alpha; [9]) was “BQL^25 pg/mL” and the “Mu-IFN-α plasma concentration, mean” value (interferon alpha; [9]) was 0.00 pg/mL. The “Mu-IFN-α plasma concentration, mean” value (interferon alpha; two oral 50 mg/kg doses 4 hours apart, time 1.50 h (first dose)) was 0.00 pg/mL, the “Mu-IFN-α plasma concentration, individual value” (interferon alpha; two oral 50 mg/kg doses 4 hours apart, time 1.50 h (first dose), listed as Isatoribine, 50 mg/kg) was “BQL^100 pg/mL; also recorded: BQL^25 pg/mL” and the “Mu-IFN-α plasma concentration, mean” value (interferon alpha; two oral 50 mg/kg doses 4 hours apart, time 2.00 h (first dose)) was 0.00 pg/mL. For the same molecule, the “Mu-IFN-α plasma concentration, individual value” (interferon alpha; two oral 50 mg/kg doses 4 hours apart, time 2.00 h (first dose), listed as Isatoribine, 50 mg/kg) was “BQL^25 pg/mL; also recorded: BQL^75 pg/mL”, the “Mu-IFN-α plasma concentration, individual value” (interferon alpha; [10]) was “BQL^25 pg/mL” and the “Mu-IFN-α plasma concentration, mean” value (interferon alpha; [10]) was 0.00 pg/mL. For the same molecule, the “Mu-IFN-α plasma concentration, individual value” (interferon alpha; [11]) was “BQL^25 pg/mL”, the “Mu-IFN-α plasma concentration, mean” value (interferon alpha; [11]) was 0.00 pg/mL and the “Mu-IFN-α plasma concentration, individual value” (interferon alpha; [12]) was “BQL^25 pg/mL”. For the same molecule, the “Mu-IFN-α plasma concentration, mean” value (interferon alpha; [12]) was 0.00 pg/mL, the “Mu-IFN-α plasma concentration, individual value” (interferon alpha; [13]) was “BQL^25 pg/mL” and the “Mu-IFN-α plasma concentration, mean” value (interferon alpha; [13]) was 0.00 pg/mL. For the same molecule, the “Mu-IFN-α plasma concentration, individual value” (interferon alpha; [14]) was “BQL^25 pg/mL”, the “Mu-IFN-α plasma concentration, mean” value (interferon alpha; [14]) was 0.00 pg/mL and the “Mu-IFN-α plasma concentration, mean” value (interferon alpha; two oral 50 mg/kg doses 4 hours apart, time 4.50 h (second dose)) was 0.00 pg/mL. The “Mu-IFN-α plasma concentration, individual value” (interferon alpha; two oral 50 mg/kg doses 4 hours apart, time 4.50 h (second dose), listed as Isatoribine, 50 mg/kg) was “BQL^50 pg/mL; also recorded: BQL^37.5 pg/mL”, the “Mu-IFN-α plasma concentration, individual value” (interferon alpha; [15]) was “BQL^50 pg/mL” and the “Mu-IFN-α plasma concentration, mean” value (interferon alpha; [15]) was 0.00 pg/mL. The “Mu-IFN-α plasma concentration, individual value” (interferon alpha; [16]) was “BQL^37.5 pg/mL”, the “Mu-IFN-α plasma concentration, mean” value (interferon alpha; [16]) was 0.00 pg/mL and the “Mu-IFN-α plasma concentration, mean” value (interferon alpha; two oral 50 mg/kg doses 4 hours apart, time 6.00 h (second dose)) was 0.00 pg/mL. The “Mu-IFN-α plasma concentration, individual value” (interferon alpha; two oral 50 mg/kg doses 4 hours apart, time 6.00 h (second dose), listed as Isatoribine, 50 mg/kg) was “BQL^50 pg/mL; also recorded: BQL^41.3 pg/mL; also recorded: BQL^37.5 pg/mL”, the “Mu-IFN-α plasma concentration, individual value” (interferon alpha; [17]) was “BQL^50 pg/mL” and the “Mu-IFN-α plasma concentration, mean” value (interferon alpha; [17]) was 0.00 pg/mL. The “Mu-IFN-α plasma concentration, mean” value (interferon alpha; two oral 50 mg/kg doses 4 hours apart, time 8.00 h (second dose)) was 0.00 pg/mL, the “Mu-IFN-α plasma concentration, individual value” (interferon alpha; two oral 50 mg/kg doses 4 hours apart, time 8.00 h (second dose), listed as Isatoribine, 50 mg/kg) was “BQL^50 pg/mL; also recorded: BQL^25 pg/mL” and the “mice with detectable interferon in their plasma” value (interferon alpha; [18]) was 4 of the 114. For the same molecule, the “proportion of mice exhibiting an interferon response” value (interferon alpha; [18]) was 4%, the “Emesis or loose stool” value ([1]; 12.5 mg/kg) was “Neg” and the “GI lesions or irritation” value ([1]; 12.5 mg/kg) was “Neg”. The “Emesis or loose stool” value ([1]; 25 mg/kg) was “Neg”, the “GI lesions or irritation” value ([1]; 25 mg/kg) was “Neg” and the “Emesis or loose stool” value ([1]; 50 mg/kg) was “+”. The “GI lesions or irritation” value ([1]; 50 mg/kg) was “Neg”, the “Emesis or loose stool” value ([1]; 100 mg/kg) was “++” and the “GI lesions or irritation” value ([1]; 100 mg/kg) was “Neg”. The “AUC Ratio (to isatoribine in bicarbonate solution)” value [2] was 1.00 and the “Cmax Ratio (to isatoribine in bicarbonate solution)” value [2] was 1.00.
